From patent US10160785B2, “Antimicrobial peptides and their use for the treatment of topical infections” (priority 2015, dated 2018)

How the values were obtained:
[1] = in vitro; settings: human
How it was run: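 Hemolysis expressed as LC50, the concentration giving 50% erythrocyte lysis. Supernatant A540 was scaled between buffer-only blank and 0.2% Triton X100 total lysis after 1 h, 37 °C exposure of 5% v/v human red cells to 2-200 μmol.l^−1 peptide in physiological solution.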

[2] = system: Candida albicans (Olomouc); experiment: microbe, parasite or virus in culture; format: cell-based; settings: RPMI broth microdilution, 35° C., 48 hours, visual
Procedure: (§1) All yeasts Candida albicans (Olomouc) and ATCC MYA-2876, Candida glabrata ATCC 2001 and DSY 565, Candida dubliniensis ATCC MYA-646, Candida krusei ATCC 6258 and Candida tropicalis ATCC 750 were sub-cultured from sterile vials onto Sabouraud dextrose agar, which was composed of 40 g dextrose (Penta, Czech Republic), 10 g peptone (OXOID, Great Britain) and 17 g agar (OXOID), dissolved in 1 l of distilled water, and cultivated for 24 hours at 35° C.
(§2) All strains were stored in a way that minimizes the possibility of mutation. Candida spp. were grown overnight in liquid YPD medium which is composed of 10 g yeast extract (DIFCO, USA), 20 g peptone (OXOID), and 20 g dextrose (Penta) dissolved in 1 l distilled water. Then the overnight culture was cryogenically preserved by suspending in 50% glycerol solution (1:1) in small vials and stored at −80° C.
(§3) The inoculum was prepared by picking five colonies from 24-hour-old cultures of Candida spp. The colonies were suspended in 1 ml of sterile saline solution and vortexed for 15 seconds. Optical density of the suspension was adjusted spectrophotometrically by adding sterile saline solution to produce optical density of 0.18 at 600 nm. A working suspension was made by a 1:50 dilution followed by a 1:20 dilution of the stock suspension with RPMI 1640 broth medium which was composed of L-glutamine without NaHCO3 (BioSera, France), and with 0.165 mol.l^−1 MOPS (Duchefa, Netherland)—further as RPMI broth medium.
(§4) The broth microdilution test was performed by using sterile, disposable, multi-well microdilution plates (96-well). The peptides in the concentrations 0.625-160 μmol.l^−1 were pipetted into the wells in 100 μl volumes. Each well of the plate was inoculated with 100 μl of the diluted inoculum suspension. Final yeast density in each well was 5×10^2 up to 2.5×10^3 CFU/ml. The microdilution plates were incubated without shaking at 35° C. and observed for the presence or absence of visible growth for 48 hours.
(§5) Drug-free medium without inoculation served as negative control; the growth positive control contained inoculated drug-free medium. Amphotericin B was used as control drug to ensure quality of Candida strains.
(§6) The minimal inhibition concentrations (MICs) were visually determined 48 hours after inoculation. The MIC values were defined as the lowest concentration in which no observable growth is noticeable.
(§7) All yeast isolates were obtained from the Institute of Physiology of the Academy of Sciences of the Czech Republic. Candida albicans (Olomouc) came from the Faculty of Medicine and Dentistry, Palacý University Olomouc.

[3] = system: Candida krusei ATCC 6258; experiment: microbe, parasite or virus in culture; format: cell-based; settings: RPMI broth microdilution, 35° C., 48 hours, visual
Procedure: as §1, §2, §3, §4, §5, §6, §7

[4] = system: Candida albicans ATCC MYA-2876; experiment: microbe, parasite or virus in culture; format: cell-based; settings: RPMI broth microdilution, 35° C., 48 hours, visual
Procedure: as §1, §2, §3, §4, §5, §6, §7

[5] = system: Candida dubliniensis ATCC MYA-646; experiment: microbe, parasite or virus in culture; format: cell-based; settings: RPMI broth microdilution, 35° C., 48 hours, visual
Procedure: as §1, §2, §3, §4, §5, §6, §7

[6] = system: Candida glabrata DSY 565; experiment: microbe, parasite or virus in culture; format: cell-based; settings: RPMI broth microdilution, 35° C., 48 hours, visual
Procedure: as §1, §2, §3, §4, §5, §6, §7

[7] = system: Candida tropicalis ATCC 750; experiment: microbe, parasite or virus in culture; format: cell-based; settings: RPMI broth microdilution, 35° C., 48 hours, visual
Procedure: as §1, §2, §3, §4, §5, §6, §7

[8] = system: Candida glabrata ATCC 2001; experiment: microbe, parasite or virus in culture; format: cell-based; settings: RPMI broth microdilution, 35° C., 48 hours, visual
Procedure: as §1, §2, §3, §4, §5, §6, §7

[9] = system: Staphylococcus epidermidis Motol; settings: 37° C., 20 h
Procedure: (§8) Gram-positive bacteria (Micrococcus luteus, Bacillus subtilis, Staphylococcus aureus, Staphylococcus epidermidis and Enterococcus faecalis), Gram-negative bacteria (Escherichia coli and Pseudomonas aeruginosa) and the yeast (Candida albicans) were grown to exponential phase and then were diluted with fresh medium. BHI medium (Oxoid, Great Britain) was used for Enterococcus faecalis; YPD medium containing yeast extract peptone and glucose was used for Candida albicans and LB medium (Sigma, Czech Republic) was used for the remaining microorganisms. Then the microorganisms were added to the solutions of the tested antimicrobial peptides in LB medium in multi-well plates. The final peptide concentration it the wells was in the range of 0.1 to 100 μmol.l^−1. That was made by twofold serial dilution from the peptide stock solution (1 mmol.l^−1). The plates were incubated at 37° C. for 20 h while being continuously shaken in a Bioscreen C (Oy Growth Curves AB Ltd., Helsinki, Finland). Absorbance was measured at 540 nm every 15 min. Antimicrobial activity (Table 2) was determined as a quantitative minimum inhibitory concentration (MIC) by observing bacterial growth in the presence of different concentrations of tested peptides. In the experiments ca 10^5 CFU of bacteria or candida per well were routinely used.
(§9) Multiresistant clinical isolates of bacteria were obtained from University Hospital in Motol, Prague, Czech Republic and from Liberec Regional Hospital, Czech Republic. Methicillin resistant Staphylococcus aureus (MRSA) 6271 and Pseudomonas aeruginosa 5482 were from the Czech National Collection of Type Cultures, the National Institute of Public Health, Prague, Czech Republic. Other bacteria were from the Czech Collection of Microorganisms, Brno, Czech Republic. Candida albicans came from the Faculty of Medicine, Palacky University, Olomouc, Czech Republic.

[10] = system: Pseudomonas aeruginosa Liberec; settings: Pseudomonas aeruginosa Liberec; 37° C., 20 h
Procedure: as §8, §9

[11] = system: Methicillin resistant Staphylococcus aureus (MRSA) 6271; settings: 37° C., 20 h
Procedure: as §8, §9

[12] = system: Pseudomonas aeruginosa 5482; settings: 37° C., 20 h
Procedure: as §8, §9

[13] = system: Micrococcus luteus; settings: Micrococcus luteus; 37° C., 20 h
Procedure: as §8, §9

[14] = system: Candida albicans Olomouc; settings: Candida albicans Olomouc; YPD medium; 37° C., 20 h (Example 2)
Procedure: as §8, §9

[15] = system: Bacillus subtilis; settings: Bacillus subtilis; 37° C., 20 h
Procedure: as §8, §9

[16] = system: Staphylococcus aureus Liberec; settings: Staphylococcus aureus Liberec clinical isolate; 37° C., 20 h
Procedure: as §8, §9

[17] = system: Escherichia coli; settings: 37° C., 20 h
Procedure: as §8, §9

[18] = system: Staphylococcus aureus Motol; settings: Staphylococcus aureus Motol clinical isolate; 37° C., 20 h
Procedure: as §8, §9

[19] = system: Enterococcus faecalis Motol; settings: BHI medium, 37° C., 20 h
Procedure: as §8, §9

[20] = system: P. aeruginosa (Liberec); experiment: Synergistic effect of peptides with antibiotics, FIC index; format: cell-based, Pseudomonas aeruginosa; settings: FIC <0.5 synergism, 0.5-2 additive, >2 antagonism, averages of three experiments; for FIC indexes (fractional inhibitory concentration) Combination with RIF against P. aeruginosa: peptide combined with rifampicin; for FIC indexes (fractional inhibitory concentration) Combination with TET against P. aeruginosa: peptide combined with tetracycline
Procedure: (§10) MICs values of various combinations of two fold serial dilutions of peptides and antibiotics were determined using the same methodology as in the case of antimicrobial activity determination (Example 2). To consider the type of the final effect, FIC indexes (fractional inhibitory concentration) were used and calculated as follows:
(§11) [formula] where MICPC and MICAC are the MICs of the peptide and antibiotic in combination, respectively, and MICP and MICA are the MICs of the peptide and antibiotic tested alone, respectively. FIC<0.5 were considered as synergy, 0.5≤FIC≤2 as addition effect, and FIC>2 as antagonism.

[21] = system: S. aureus (Liberec); experiment: as above; format: cell-based, Staphylococcus aureus; settings: peptide combined with amoxicillin; FIC <0.5 synergism, 0.5-2 additive, >2 antagonism; averages of three experiments
Procedure: as §10, §11

Substance | HC50 at 1 h [1] [µM] | Antifungal activity MIC C. albicans Olomouc [2] [µM] | Antifungal activity MIC C. krusei ATCC 6258 [3] [µM] | Antifungal activity MIC C. albicans ATCC MYA-2876 [4] [µM] | Antifungal activity MIC C. dubliniensis ATCC MYA-646 [5] [µM] | Antifungal activity MIC C. glabrata DSY 565 [6] [µM] | Antifungal activity MIC C. tropicalis ATCC 750 [7] [µM] | Antifungal activity MIC C. glabrata ATCC 2001 [8] [µM] | Antimicrobial activity MIC S. e. Motol [9] [µM] | Antimicrobial activity MIC P. a. Liberec [10] [µM] | Antimicrobial activity MIC S. a. 6271 [11] [µM] | Antimicrobial activity MIC P. a. 5482 [12] [µM] | Antimicrobial activity MIC M. l. [13] [µM] | Antimicrobial activity MIC C. a. Olomouc [14] [µM] | Antimicrobial activity MIC B. s. [15] [µM] | Antimicrobial activity MIC S. a. Liberec [16] [µM] | Antimicrobial activity MIC E. c. [17] [µM] | Antimicrobial activity MIC S. a. Motol [18] [µM] | Antimicrobial activity MIC E. f. Motol [19] [µM] | FIC indexes (fractional inhibitory concentration) Combination with RIF against P. aeruginosa [20] | further results
H-GILSSLLKKWKKIIAK-NH2 [XVI] | > 400 | 18.0 | 10.0 | 26.0 | 40.0 | 231.1 | 1.0 | 40.0 | 2.7 | 7.1 | 20.0 | 5.0 | 2.0 | 10.5 | 1.6 | 8.8 | 7.5 | 20.3 | 100.0 | 0.417 | FIC indexes (fractional inhibitory concentration) Combination with TET against P. aeruginosa [20]: 0.583
H-GILSSWLKKLKKIIAK-NH2 [XV] | > 400 | 21.0 | 8.0 | 17.0 | 22.0 | 88.9 | 1.2 | 40.0 | 2.0 | 5.9 | 16.0 | 4.0 | 1.6 | 16.7 | 1.6 | 6.6 | 11.0 | 16.2 | 73.3 | 0.396 | FIC indexes (fractional inhibitory concentration) Combination with AMX against S. aureus [21]: 0.375; FIC indexes (fractional inhibitory concentration) Combination with TET against P. aeruginosa [20]: 0.646
